From the supplement of paper PMC10331698
± gives the standard deviation of the averaged measurements.

How the values were obtained:
Test in all cases: level (log10 ratio to DMSO vehicle control); higher = higher biomarker level / cell amount than vehicle control
[1] = compound: C=CC(=O)OCC(F)(F)C(F)(F)C(F)(F)COC(=O)C=C [1H,1H,5H,5H-Perfluoro-1,5-pentanediol diacrylate]; details: 6700 nM; in DMSO
Method: (§1)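 BioMAP Diversity Plus panel of 12 human primary cell co-culture systems (3C, 4H, LPS, SAg, BT, BF4T, BE3C, CASM3C, HDF3CGF, KF3CT, MyoF, Mphg). Compounds were added 1 h before stimulation and left for 24 h (MyoF 48 h; BT 72 h for soluble read-outs or 6 d for IgG). Biomarkers were read by ELISA, cytotoxicity by SRB, PBMC viability and proliferation by Alamar Blue. Each well value was divided by the mean of 8 DMSO control wells on the same plate and log10 transformed; duplicate blinded samples were tested at 4 concentrations.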

[2] = compound: O=C(O)C=CC(F)(C(F)(F)F)C(F)(F)F [3-(Perfluoroisopropyl)-2-propenoic acid]; details: in DMSO
Method: as §1

[3] = compound: O=C(O)C(F)(F)C(F)(F)C(F)(F)C(F)(F)C(F)(F)C(F)(F)C(F)(F)C(F)(F)C(F)(F)C(F)F [11-H-Perfluoroundecanoic acid]; details: in DMSO
Method: as §1

[4] = compound: O=S(=O)(Cl)C(F)(F)C(F)(F)C(F)(F)C(F)(F)C(F)(F)C(F)(F)C(F)(F)C(F)(F)F [Perfluoro-1-octanesulfonyl chloride]; details: in DMSO
Method: as §1

[5] = compound: FC(F)(F)C(F)(F)C(F)(F)CI [Heptafluorobutyl iodide]; details: in DMSO
Method: as §1

[6] = compound: NC(=O)C(F)(F)C(F)(F)C(F)(F)C(F)F; details: in DMSO
Method: as §1

[7] = compound: COC(=O)C(F)(F)C(F)(F)OC(F)(C(F)(F)F)C(F)(F)OC(F)=C(F)F [Methyl perfluoro(3-(1-ethenyloxypropan-2-yloxy)propanoate)]; details: in DMSO
Method: as §1

[8] = compound: O=S(=O)(O)C(F)(F)C(F)(F)C(F)(F)C(F)(F)C(F)(F)C(F)(F)C(F)(F)C(F)(F)C(F)(F)C(F)(F)F [Sodium perfluorodecanesulfonate]; details: in DMSO
Method: as §1

[9] = compound: FC(F)(F)C(F)(F)C(F)(F)C(F)(F)C(F)(F)C(F)(F)C(F)(F)I [1-Iodopentadecafluoroheptane]; details: in DMSO
Method: as §1

[10] = compound: C=C(C)C(=O)OCCC(F)(F)C(F)(F)C(F)(F)C(F)(F)C(F)(F)C(F)(F)F [6:2 Fluorotelomer methacrylate]; details: in DMSO
Method: as §1

[11] = compound: NS(=O)(=O)C(F)(F)C(F)(F)C(F)(F)C(F)(F)C(F)(F)C(F)(F)F [Perfluorohexanesulfonamide]; details: in DMSO
Method: as §1

[12] = compound: O=S(=O)(O)CCC(F)(F)C(F)(F)C(F)(F)C(F)(F)C(F)(F)C(F)(F)F [6:2 Fluorotelomer sulfonic acid]; details: in DMSO
Method: as §1

[13] = compound: FC(F)(F)C(F)(F)CNCC(F)(F)C(F)(F)F [Bis(1H,1H-perfluoropropyl)amine]; details: in DMSO
Method: as §1

[14] = compound: O=S(=O)(F)C(F)(F)C(F)(F)C(F)(F)C(F)(F)C(F)(F)C(F)(F)C(F)(F)C(F)(F)F [Perfluorooctanesulfonyl fluoride]; details: in DMSO
Method: as §1

[15] = compound: OCC(F)(F)C(F)(F)C(F)(F)CO [Hexafluoroamylene glycol]; details: in DMSO
Method: as §1

[16] = compound: NC(=O)C(F)(F)C(F)(F)C(F)(F)C(F)(F)C(N)=O [Octafluoroadipamide]; details: in DMSO
Method: as §1

[17] = compound: FC(F)(F)C(F)(F)C(F)(F)C(F)(F)C(F)(F)C(F)(F)CC1CO1 [3-(Perfluorohexyl)-1,2-epoxypropane]; details: in DMSO
Method: as §1

[18] = compound: NC(=O)C(F)(F)C(F)(F)C(F)(F)C(F)(F)F [Nonafluoropentanamide]; details: in DMSO
Method: as §1

[19] = compound: FC(F)(F)C(F)(F)C(F)(F)CC1CO1 [1H,1H-Heptafluorobutyl epoxide]; details: in DMSO
Method: as §1

In the case of HDF3CGF:CXCL9/MIG, the “level (log10)” value [1] is reported as -0.779, the “level (log10)” value ([2]; 6700 nM) is reported as 0.017 ± 0.0071 and the “level (log10)” value ([2]; 20000 nM) is reported as 0.02 ± 0.011. For the same test system, the “level (log10)” value ([2]; 60000 nM) was 0.011 ± 0.023, the “level (log10)” value ([3]; 6700 nM) was -0.089 ± 0.0099 and the “level (log10)” value ([3]; 20000 nM) was -0.222 ± 0.014. For the same test system, the “level (log10)” value ([4]; 6700 nM) was -0.0115 ± 0.019, the “level (log10)” value ([4]; 20000 nM) was -0.0165 ± 0.018 and the “level (log10)” value ([4]; 60000 nM) was -0.0005 ± 0.026. The “level (log10)” value ([5]; 6700 nM) was -0.012 ± 0.0071, the “level (log10)” value ([5]; 20000 nM) was -0.0305 ± 0.016 and the “level (log10)” value ([5]; 60000 nM) was -0.022 ± 0.011. The “level (log10)” value ([6]; 6700 nM) was 0.0055 ± 0.00071, the “level (log10)” value ([6]; 20000 nM) was -0.0065 ± 0.012 and the “level (log10)” value ([6]; 60000 nM) was -0.0025 ± 0.0035. The “level (log10)” value ([7]; 6700 nM) was 0.01 ± 0.0014, the “level (log10)” value ([7]; 20000 nM) was -0.063 ± 0.014 and the “level (log10)” value ([8]; 1500 nM) was -0.0085 ± 0.022. The “level (log10)” value ([8]; 4400 nM) was -0.0565 ± 0.00071, the “level (log10)” value ([8]; 13000 nM) was 0.029 ± 0.0085 and the “level (log10)” value ([8]; 40000 nM) was 0.049 ± 0.014. The “level (log10)” value ([9]; 6700 nM) was -0.016 ± 0.0042, the “level (log10)” value ([9]; 20000 nM) was 0.0015 ± 0.0064 and the “level (log10)” value ([10]; 6700 nM) was 0.0025 ± 0.019. For the same test system, the “level (log10)” value ([10]; 20000 nM) was 0.0095 ± 0.00071, the “level (log10)” value ([10]; 60000 nM) was 0.015 ± 0.0085 and the “level (log10)” value ([11]; 6700 nM) was 0.0165 ± 0.019. The “level (log10)” value ([11]; 20000 nM) was 0.01 ± 0.028, the “level (log10)” value ([11]; 60000 nM) was -0.061 ± 0.037 and the “level (log10)” value ([12]; 6700 nM) was -0.013 ± 0.048. For the same test system, the “level (log10)” value ([12]; 20000 nM) was -0.0395 ± 0.018, the “level (log10)” value ([12]; 60000 nM) was -0.046 ± 0.038 and the “level (log10)” value ([13]; 6700 nM) was -0.002 ± 0.0028. For the same test system, the “level (log10)” value ([13]; 20000 nM) was -0.0025 ± 0.018, the “level (log10)” value ([13]; 60000 nM) was 0.004 ± 0.024 and the “level (log10)” value ([14]; 6700 nM) was -0.01 ± 0.0028. For the same test system, the “level (log10)” value ([14]; 20000 nM) was 0.0125 ± 0.0092, the “level (log10)” value ([14]; 60000 nM) was -0.02 ± 0.017 and the “level (log10)” value ([15]; 6700 nM) was -0.001 ± 0.038. The “level (log10)” value ([15]; 20000 nM) was 0.0055 ± 0.035, the “level (log10)” value ([15]; 60000 nM) was -0.035 ± 0.083 and the “level (log10)” value ([16]; 6700 nM) was -0.006 ± 0.0014. For the same test system, the “level (log10)” value ([16]; 20000 nM) was -0.0055 ± 0.015, the “level (log10)” value ([16]; 60000 nM) was 0.016 ± 0.025 and the “level (log10)” value ([17]; 6700 nM) was 0.0095 ± 0.0092. For the same test system, the “level (log10)” value ([17]; 20000 nM) was 0.0085 ± 0.016, the “level (log10)” value ([17]; 60000 nM) was -0.0085 ± 0.013 and the “level (log10)” value ([18]; 6700 nM) was 0.017 ± 0.0028. The “level (log10)” value ([18]; 20000 nM) was -0.0025 ± 0.0064, the “level (log10)” value ([18]; 60000 nM) was 0.005 ± 0.018 and the “level (log10)” value ([19]; 6700 nM) was -0.03 ± 0.031. The “level (log10)” value ([19]; 20000 nM) was -0.03 ± 0.068 and the “level (log10)” value ([19]; 60000 nM) was -0.062 ± 0.05.
In the case of HDF3CGF:SRB, the “level (log10)” value [1] is reported as -0.458 ± 0.051, the “level (log10)” value ([2]; 6700 nM) is reported as -0.014 ± 0.055 and the “level (log10)” value ([2]; 20000 nM) is reported as 0.0205 ± 0.011. For the same test system, the “level (log10)” value ([2]; 60000 nM) was -0.0055 ± 0.022, the “level (log10)” value ([3]; 6700 nM) was 0.03 ± 0.0014 and the “level (log10)” value ([3]; 20000 nM) was 0.111 ± 0.024. The “level (log10)” value ([4]; 6700 nM) was 0.015 ± 0.021, the “level (log10)” value ([4]; 20000 nM) was -0.0095 ± 0.005 and the “level (log10)” value ([4]; 60000 nM) was -0.0345 ± 0.035. For the same test system, the “level (log10)” value ([5]; 6700 nM) was -0.0315 ± 0.012, the “level (log10)” value ([5]; 20000 nM) was 0.0025 ± 0.037 and the “level (log10)” value ([5]; 60000 nM) was 0.0275 ± 0.04. The “level (log10)” value ([6]; 6700 nM) was -0.007 ± 0.0042, the “level (log10)” value ([6]; 20000 nM) was 0.0065 ± 0.016 and the “level (log10)” value ([6]; 60000 nM) was -0.0035 ± 0.015. For the same test system, the “level (log10)” value ([7]; 6700 nM) was 0.0845 ± 0.0035, the “level (log10)” value ([7]; 20000 nM) was 0.081 ± 0.0042 and the “level (log10)” value ([8]; 1500 nM) was 0.014 ± 0.0099. For the same test system, the “level (log10)” value ([8]; 4400 nM) was -0.0075 ± 0.035, the “level (log10)” value ([8]; 13000 nM) was 0.104 ± 0.0092 and the “level (log10)” value ([8]; 40000 nM) was 0.198. For the same test system, the “level (log10)” value ([9]; 6700 nM) was 0.013 ± 0.021, the “level (log10)” value ([9]; 20000 nM) was -0.002 ± 0.016 and the “level (log10)” value ([10]; 6700 nM) was 0.02 ± 0.0071. For the same test system, the “level (log10)” value ([10]; 20000 nM) was 0.0315 ± 0.005, the “level (log10)” value ([10]; 60000 nM) was 0.033 ± 0.013 and the “level (log10)” value ([11]; 6700 nM) was -0.0045 ± 0.0064. For the same test system, the “level (log10)” value ([11]; 20000 nM) was -0.009 ± 0.052, the “level (log10)” value ([11]; 60000 nM) was -0.002 ± 0.033 and the “level (log10)” value ([12]; 6700 nM) was 0.0055 ± 0.044. For the same test system, the “level (log10)” value ([12]; 20000 nM) was 0.0255 ± 0.056, the “level (log10)” value ([12]; 60000 nM) was 0.023 ± 0.085 and the “level (log10)” value ([13]; 6700 nM) was -0.0275 ± 0.0078. For the same test system, the “level (log10)” value ([13]; 20000 nM) was 0.008 ± 0.0014, the “level (log10)” value ([13]; 60000 nM) was 0.0145 ± 0.05 and the “level (log10)” value ([14]; 6700 nM) was 0.017 ± 0.0014. For the same test system, the “level (log10)” value ([14]; 20000 nM) was 0.0365 ± 0.025, the “level (log10)” value ([14]; 60000 nM) was 0.043 ± 0.034 and the “level (log10)” value ([15]; 6700 nM) was 0.0095 ± 0.052. For the same test system, the “level (log10)” value ([15]; 20000 nM) was 0.0215 ± 0.06, the “level (log10)” value ([15]; 60000 nM) was 0.02 ± 0.061 and the “level (log10)” value ([16]; 6700 nM) was -0.0135 ± 0.047. The “level (log10)” value ([16]; 20000 nM) was -0.0225 ± 0.066, the “level (log10)” value ([16]; 60000 nM) was -0.0195 ± 0.046 and the “level (log10)” value ([17]; 6700 nM) was -0.001 ± 0.031. For the same test system, the “level (log10)” value ([17]; 20000 nM) was -0.0035 ± 0.015, the “level (log10)” value ([17]; 60000 nM) was -0.006 ± 0.04 and the “level (log10)” value ([18]; 6700 nM) was 0.024 ± 0.0042. For the same test system, the “level (log10)” value ([18]; 20000 nM) was 0.022 ± 0.011, the “level (log10)” value ([18]; 60000 nM) was 0.0245 ± 0.005 and the “level (log10)” value ([19]; 6700 nM) was -0.0095 ± 0.029. For the same test system, the “level (log10)” value ([19]; 20000 nM) was -0.0105 ± 0.0021 and the “level (log10)” value ([19]; 60000 nM) was 0.0375 ± 0.0064.
